Reference: ChEMBL document CHEMBL1129832, “Rational design, synthesis, and serine protease inhibitory activity of a novel P1-argininal derivative featuring a conformationally constrained P2P3 bicyclic lactam moiety” (Bioorg Med Chem Lett, 1997)

Tests used:
[1] = target: Prothrombin (Homo sapiens, UniProt P00734)
[2] = target: Serine protease 1 (Homo sapiens, UniProt P07477)
[3] = target: Tissue-type plasminogen activator (Homo sapiens, UniProt P00750); experiment: In vitro inhibitory concentration required to inhibit tissue plasminogen activator cleavage of the chromogenic substrate by 50%; Inactive
Tissue-type plasminogen activator, sequence (P00750 whole entry): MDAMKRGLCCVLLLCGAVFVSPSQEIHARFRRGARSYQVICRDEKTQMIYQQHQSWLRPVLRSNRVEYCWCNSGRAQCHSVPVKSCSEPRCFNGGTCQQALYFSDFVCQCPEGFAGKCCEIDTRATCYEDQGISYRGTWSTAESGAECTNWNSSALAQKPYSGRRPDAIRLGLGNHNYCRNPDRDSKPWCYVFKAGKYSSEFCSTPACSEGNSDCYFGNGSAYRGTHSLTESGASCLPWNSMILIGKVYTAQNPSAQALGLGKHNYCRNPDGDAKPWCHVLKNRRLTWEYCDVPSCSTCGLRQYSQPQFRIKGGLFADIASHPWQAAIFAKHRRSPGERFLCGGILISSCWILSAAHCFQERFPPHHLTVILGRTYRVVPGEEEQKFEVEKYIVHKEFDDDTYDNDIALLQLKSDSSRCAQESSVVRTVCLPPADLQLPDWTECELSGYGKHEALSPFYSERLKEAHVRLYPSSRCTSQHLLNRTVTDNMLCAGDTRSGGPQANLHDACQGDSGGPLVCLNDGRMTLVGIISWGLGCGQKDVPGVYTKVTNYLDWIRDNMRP

[4] = target: T1, Plasminogen (Homo sapiens, UniProt P00747)
T1 sequence (P00747 97-580 limits assumed): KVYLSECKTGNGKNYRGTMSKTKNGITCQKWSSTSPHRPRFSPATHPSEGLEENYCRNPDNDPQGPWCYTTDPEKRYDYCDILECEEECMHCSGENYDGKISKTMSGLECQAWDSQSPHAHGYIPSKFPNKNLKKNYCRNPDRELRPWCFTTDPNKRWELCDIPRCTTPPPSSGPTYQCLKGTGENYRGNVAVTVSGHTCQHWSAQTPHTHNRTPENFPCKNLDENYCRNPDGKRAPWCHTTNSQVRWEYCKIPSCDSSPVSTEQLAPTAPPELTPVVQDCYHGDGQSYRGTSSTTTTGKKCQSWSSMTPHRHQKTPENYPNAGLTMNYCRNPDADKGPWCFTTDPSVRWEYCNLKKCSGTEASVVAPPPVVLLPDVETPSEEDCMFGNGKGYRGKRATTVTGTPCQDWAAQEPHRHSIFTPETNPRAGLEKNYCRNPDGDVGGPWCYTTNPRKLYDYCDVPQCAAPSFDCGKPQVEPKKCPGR
T1 sequence (P00747 581-810 limits assumed): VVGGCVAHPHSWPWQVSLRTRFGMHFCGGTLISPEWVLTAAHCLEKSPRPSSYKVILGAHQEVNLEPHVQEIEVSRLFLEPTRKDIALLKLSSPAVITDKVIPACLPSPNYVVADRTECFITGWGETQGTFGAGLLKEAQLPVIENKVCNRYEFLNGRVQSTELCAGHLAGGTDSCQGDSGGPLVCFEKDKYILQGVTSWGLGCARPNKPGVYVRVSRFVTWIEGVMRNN

[5] = target: Coagulation factor X (Homo sapiens, UniProt P00742)
Coagulation factor X, sequence (P00742 41-179 limits assumed): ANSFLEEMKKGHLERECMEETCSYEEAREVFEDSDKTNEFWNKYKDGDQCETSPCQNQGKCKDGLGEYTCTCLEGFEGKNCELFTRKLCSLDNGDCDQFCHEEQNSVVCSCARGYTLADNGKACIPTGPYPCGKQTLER
Coagulation factor X, sequence (P00742 235-488 limits assumed): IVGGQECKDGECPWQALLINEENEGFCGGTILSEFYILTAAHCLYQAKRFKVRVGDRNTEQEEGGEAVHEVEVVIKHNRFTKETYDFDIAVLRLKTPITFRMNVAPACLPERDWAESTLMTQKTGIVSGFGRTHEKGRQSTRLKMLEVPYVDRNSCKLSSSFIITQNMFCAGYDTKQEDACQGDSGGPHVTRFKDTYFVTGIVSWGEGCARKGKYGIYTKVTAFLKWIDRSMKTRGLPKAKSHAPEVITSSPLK
Description: In vitro inhibitory concentration required to inhibit Coagulation factor X by 50%

[6] = target: T1, Plasminogen; remark: listed apart in the source

Serine protease 1, sequence (P07477 whole entry): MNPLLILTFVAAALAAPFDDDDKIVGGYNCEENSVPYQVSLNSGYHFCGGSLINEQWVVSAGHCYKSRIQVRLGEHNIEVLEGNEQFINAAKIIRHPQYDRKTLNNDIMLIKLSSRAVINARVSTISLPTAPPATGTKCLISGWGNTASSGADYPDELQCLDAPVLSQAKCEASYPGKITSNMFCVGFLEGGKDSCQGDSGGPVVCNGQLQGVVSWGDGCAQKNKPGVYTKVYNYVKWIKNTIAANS

SMILES | IC50 [1] [nM] | IC50 [2] [nM] | IC50 [3] | IC50 [4] [nM] | IC50 [5] [nM] | IC50 [6]
CCCC(CCC)C(=O)N[C@@H](CC(=O)OC)C(=O)N1CCCC1C(=O)N[C@H]1CCCN(C(=N)N)C1O (stereo partly specified) | 1.1 | 1.36 | Not Active | 315 |  | 
N=C(N)N1CCC[C@H](NC(=O)C2CS[C@H]3CC[C@H](NS(=O)(=O)Cc4ccccc4)C(=O)N23)C1O (stereo partly specified) | 16.4 | 11.6 | Not Active | 923 | > 2500 | 
COC(=O)C[C@H](NS(=O)(=O)Cc1ccccc1)C(=O)N1CCCC1C(=O)N[C@H]1CCCN(C(=N)N)C1O (stereo partly specified) | 5.01 | 2.58 |  | 14.8 | 29.7 | 
N=C(N)N1CCC[C@H](NC(=O)CN2CCC[C@H](NS(=O)(=O)Cc3ccccc3)C2=O)C1O (stereo partly specified) |  |  | Not Active |  | > 2500 | Not Active
